From publication PMC4178217, “Quinoline 3-sulfonamides inhibit lactate dehydrogenase A and reverse aerobic glycolysis in cancer cells” (Cancer & Metabolism, 2013)

System: HepG2 cells
Details: HepG2 conditioned medium, 10 μM, 24 h
Description: Ten million Snu398 or HepG2 cells per flask were plated in R10 medium in T150 tissue culture flasks and allowed to attach overnight. The following morning, medium was replaced with medium containing either DMSO or 10 μM LDHA inhibitor, and cells were incubated for 24 h at 37°C. The conditioned medium was collected and cells were washed, lifted by trypsinization and pelleted. Both medium and cell samples were submitted for mass spectroscopy (MS) analysis of over 500 individual metabolites. All samples were prepared in replicates of five.

COc1ncc(-c2ccc3c(Nc4cc(C(=O)O)cc(C5CCCC5)c4)c(S(=O)(=O)NC4CC4)cnc3c2)c(OC)n1 [Compound 2]
fold change 1-oleoylglycerophosphocholine: 0.94
fold change 1-palmitoleoylglycerophosphocholine*: 0.91
fold change 1-palmitoylglycerophosphocholine: 0.94
fold change 1-stearoylglycerophosphocholine: 0.95
fold change 2'-O-methylguanosine: 0.70
fold change 2-aminobutyrate: 0.91
fold change 2-hydroxybutyrate (AHB): 0.89
fold change 2-hydroxyglutarate: 0.93
fold change 2-methylbutyroylcarnitine: 0.94
fold change 2-methylbutyrylglycine: 0.81
fold change 2-oleoylglycerophosphocholine*: 0.96
fold change 2-palmitoylglycerophosphocholine*: 0.98
fold change 2-stearoylglycerophosphocholine*: 1.16
fold change 3-(4-hydroxyphenyl)lactate: 1.15
fold change 3-dehydrocarnitine*: 1.04
fold change 3-indoxyl sulfate: 0.96
fold change 3-methyl-2-oxobutyrate: 0.99
fold change 3-methyl-2-oxovalerate: 0.94
fold change 4-acetamidobutanoate: 0.92
fold change 4-guanidinobutanoate: 0.88
fold change 4-methyl-2-oxopentanoate: 0.96
fold change 5-oxoproline: 1.02
fold change 6'-sialyllactose: 1.01
fold change C-glycosyltryptophan*: 1.06
fold change HEPES: 0.97
fold change Isobar: 2-propylpentanoic acid, 2-ethylhexanoic acid: 1.01
fold change N1-methyladenosine: 1.02
fold change N1-methylguanosine: 0.87
fold change N6-carbamoylthreonyladenosine: 1.10
fold change N-acetylaspartate (NAA): 0.70
fold change N-acetylneuraminate: 1.09
fold change N-acetylornithine: 0.99
fold change X - 02952: 8.06
fold change X - 02973: 1.18
fold change X - 03090: 0.99
fold change X - 04015: 1.00
fold change X - 04133: 1.08
fold change X - 04135: 1.13
fold change X - 04148: 0.80
fold change X - 04252: 0.53
fold change X - 04357: 1.09
fold change X - 05907: 0.49
fold change X - 06126: 0.78
fold change X - 06911: 0.99
fold change X - 08172: 0.15
fold change X - 08889: 1.21
fold change X - 08895: 1.11
fold change X - 09008: 0.87
fold change X - 09026: 0.58
fold change X - 10475: 0.76
fold change X - 10476: 0.43
fold change X - 10634: 0.56
fold change X - 10740: 1.18
fold change X - 10869: 0.93
fold change X - 11081: 1.03
fold change X - 11315: 0.83
fold change X - 11533: 1.04
fold change X - 11593: 1.12
fold change X - 11787: 1.01
fold change X - 12013: 1.09
fold change X - 12015: 0.97
fold change X - 12117: 0.78
fold change X - 12216: 0.72
fold change X - 12339: 1.38
fold change X - 12435: 0.91
fold change X - 12602: 0.93
fold change X - 12729: 1.15
fold change X - 12749: 0.95
fold change X - 12776: 0.86
fold change X - 12786: 1.07
fold change X - 12792: 0.77
fold change X - 12799: 1.04
fold change X - 12944: 0.83
fold change X - 13100: 1.00
fold change X - 13103: 0.95
fold change X - 13104: 1.11
fold change X - 13110: 1.00
fold change X - 13115: 0.98
fold change X - 13117: 1.01
fold change X - 13166: 0.95
fold change X - 13483: 0.84
fold change X - 13491: 1.19
fold change X - 13494: 0.82
fold change X - 13496: 1.11
fold change X - 13507: 1.00
fold change X - 13553: 1.05
fold change X - 13581: 1.00
fold change X - 13857: 0.74
fold change X - 14056: 0.96
fold change X - 14574: 0.86
fold change X - 14588: 0.93
fold change X - 15558: 1.17
fold change X - 15559: 1.15
fold change X - 15562: 1.13
fold change X - 15563: 1.13
fold change X - 15678: 1.32
fold change X - 15808: 1.14
fold change X - 16103: 0.86
fold change X - 16116: 1.18
fold change X - 16200: 1.04
fold change X - 16206: 0.95
fold change X - 16439: 1.13
fold change X - 16444: 1.07
fold change X - 17112: 1.02
fold change X - 17430: 1.13
fold change acetylcarnitine: 0.95
fold change acetylphosphate: 0.92
fold change alanine: 0.99
fold change alanylglutamine: 0.96
fold change allantoin: 0.85
fold change arabitol: 0.72
fold change arachidonate (20:4n6): 1.07
fold change arginine: 0.98
